Reference: ChEMBL document CHEMBL1139705, “Synthesis and in vitro pharmacological studies of new C(4)-modified salvinorin A analogues” (Bioorg Med Chem Lett, 2006)

Key:
[1] = target: T1, Kappa-type opioid receptor (Homo sapiens, UniProt P41145); assay: Displacement of [3H]diprenorphine binding from human kappa opioid receptor expressed in CHO cells; assay type: cell-based
[2] = target: T1, Kappa-type opioid receptor; assay: Binding potency at human kappa opioid receptor expressed in CHO cells by [35S]GTPgammaS binding assay; assay type: functional, cell-based
[3] = target: T1, Kappa-type opioid receptor; assay: Efficacy at human kappa opioid receptor expressed in CHO cells by [35S]GTP-gamma-S binding assay relative to U50,488H; assay type: functional, cell-based

T1 sequence (P41145 whole entry): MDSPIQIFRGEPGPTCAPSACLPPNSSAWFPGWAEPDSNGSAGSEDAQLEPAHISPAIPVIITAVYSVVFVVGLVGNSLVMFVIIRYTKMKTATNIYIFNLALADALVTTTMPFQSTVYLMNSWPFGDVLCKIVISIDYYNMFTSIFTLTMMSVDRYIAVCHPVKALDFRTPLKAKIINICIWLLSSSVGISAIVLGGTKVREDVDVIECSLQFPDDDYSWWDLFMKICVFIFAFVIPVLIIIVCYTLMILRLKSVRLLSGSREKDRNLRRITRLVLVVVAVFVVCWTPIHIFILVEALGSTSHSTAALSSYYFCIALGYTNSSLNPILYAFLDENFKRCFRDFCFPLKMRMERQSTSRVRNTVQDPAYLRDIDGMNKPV

| Structure (SMILES) | Ki [1] | EC50 [2] | Efficacy [3] |
| --- | --- | --- | --- |
| CC(=O)O[C@H]1C[C@@H](COC(=O)CNC(=O)OCC2c3ccccc3-c3ccccc32)[C@]2(C)CC[C@H]3C(=O)O[C@H](c4ccoc4)C[C@]3(C)[C@H]2C1=O | > 1000 nM | – | – |
| CC(=O)O[C@H]1C[C@@H](COCc2ccccc2)[C@]2(C)CC[C@H]3C(=O)O[C@H](c4ccoc4)C[C@]3(C)[C@H]2C1=O | > 1000 nM | – | – |
| C#CCC(=O)OC[C@@H]1C[C@H](OC(C)=O)C(=O)[C@H]2[C@@]1(C)CC[C@H]1C(=O)O[C@H](c3ccoc3)C[C@]21C | > 1000 nM | – | – |
| CC(=O)O[C@H]1C[C@@H](COC(=O)c2ccc(Br)cc2)[C@]2(C)CC[C@H]3C(=O)O[C@H](c4ccoc4)C[C@]3(C)[C@H]2C1=O | > 1000 nM | – | – |
| CC(=O)O[C@H]1C[C@@H](COC(=O)Cc2ccccc2)[C@]2(C)CC[C@H]3C(=O)O[C@H](c4ccoc4)C[C@]3(C)[C@H]2C1=O | > 1000 nM | – | – |
| COC[C@@H]1C[C@H](OC(C)=O)C(=O)[C@H]2[C@@]1(C)CC[C@H]1C(=O)O[C@H](c3ccoc3)C[C@]21C | > 1000 nM | – | – |
| CC(=O)O[C@H]1C[C@@H](COC(=O)c2ccc(C)cc2)[C@]2(C)CC[C@H]3C(=O)O[C@H](c4ccoc4)C[C@]3(C)[C@H]2C1=O | > 1000 nM | – | – |
| C/C=C/C(=O)OC[C@@H]1C[C@H](OC(C)=O)C(=O)[C@H]2[C@@]1(C)CC[C@H]1C(=O)O[C@H](c3ccoc3)C[C@]21C | > 1000 nM | – | – |
| C=CCOC[C@@H]1C[C@H](OC(C)=O)C(=O)[C@H]2[C@@]1(C)CC[C@H]1C(=O)O[C@H](c3ccoc3)C[C@]21C | > 1000 nM | – | – |
| COCCOCC(=O)OC[C@@H]1C[C@H](OC(C)=O)C(=O)[C@H]2[C@@]1(C)CC[C@H]1C(=O)O[C@H](c3ccoc3)C[C@]21C | 613 nM | 210 nM | 98% |
| CC(=O)OC[C@@H]1C[C@H](OC(C)=O)C(=O)[C@H]2[C@@]1(C)CC[C@H]1C(=O)O[C@H](c3ccoc3)C[C@]21C | > 1000 nM | – | – |
| CC(=O)O[C@H]1C[C@@H](C(=O)O)[C@]2(C)CC[C@H]3C(=O)O[C@H](c4ccoc4)C[C@]3(C)[C@H]2C1=O | > 1000 nM | – | – |
| COC(=O)[C@@H]1C[C@H](OC(C)=O)C(=O)[C@H]2[C@@]1(C)CC[C@H]1C(=O)O[C@H](c3ccoc3)C[C@]21C | – | – | 106% |
| CC(=O)O[C@H]1C[C@@H](COC(=O)C(C)N(C)C(=O)OCC2c3ccccc3-c3ccccc32)[C@]2(C)CC[C@H]3C(=O)O[C@H](c4ccoc4)C[C@]3(C)[C@H]2C1=O (stereo not given in full) | > 1000 nM | – | – |
| CC(=O)O[C@H]1C[C@@H](c2nnnn2CCC#N)[C@]2(C)CC[C@H]3C(=O)O[C@H](c4ccoc4)C[C@]3(C)[C@H]2C1=O | > 1000 nM | – | – |
| CC(=O)O[C@H]1C[C@@H](COC(=O)c2cccc(F)c2)[C@]2(C)CC[C@H]3C(=O)O[C@H](c4ccoc4)C[C@]3(C)[C@H]2C1=O | > 1000 nM | – | – |
| CC(=O)O[C@H]1C[C@@H](COC(=O)c2ccc(F)cc2)[C@]2(C)CC[C@H]3C(=O)O[C@H](c4ccoc4)C[C@]3(C)[C@H]2C1=O | > 1000 nM | – | – |
| CC(=O)O[C@H]1C[C@@H](COC(=O)C(NC(=O)OCC2c3ccccc3-c3ccccc32)c2ccccc2)[C@]2(C)CC[C@H]3C(=O)O[C@H](c4ccoc4)C[C@]3(C)[C@H]2C1=O (stereo not given in full) | > 1000 nM | – | – |
| CCOC[C@@H]1C[C@H](OC(C)=O)C(=O)[C@H]2[C@@]1(C)CC[C@H]1C(=O)O[C@H](c3ccoc3)C[C@]21C | > 1000 nM | – | – |
| CC(=O)O[C@H]1C[C@@H](COC(=O)C(C)NC(=O)OCC2c3ccccc3-c3ccccc32)[C@]2(C)CC[C@H]3C(=O)O[C@H](c4ccoc4)C[C@]3(C)[C@H]2C1=O (stereo not given in full) | > 1000 nM | – | – |
| COCCOCC(=O)OC[C@@H]1C[C@H](OC(C)=O)C(=O)[C@H]2[C@@]1(C)CC[C@@H]1C(=O)O[C@H](c3ccoc3)C[C@]21C | > 1000 nM | – | – |
| CC(=O)O[C@H]1C[C@@H](CO)[C@]2(C)CC[C@H]3C(=O)O[C@H](c4ccoc4)C[C@]3(C)[C@H]2C1=O | 43.4 nM | 20.7 nM | 107% |
| CC(=O)O[C@H]1C[C@@H](COC(=O)C2CC2)[C@]2(C)CC[C@H]3C(=O)O[C@H](c4ccoc4)C[C@]3(C)[C@H]2C1=O | 221 nM | 358 nM | 92% |
| CC(=O)O[C@H]1C[C@@H](C=O)[C@]2(C)CC[C@H]3C(=O)O[C@H](c4ccoc4)C[C@]3(C)[C@H]2C1=O | > 1000 nM | – | – |
